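Briefly, cells in 96-well plates were exposed to five compound concentrations for 48 h, and endpoints were estimated by linear interpolation. GI50 is the concentration that inhibits growth by half.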 The source made the active and inactive calls. Rule as the data show it: active = GI50 up to about 1.1 µM and inactive = higher.
Columns and labels:
Assay in all cases: NCI tumour cell line growth inhibition, 48 h
SW-620 = system: SW-620
EKVX = system: EKVX
HCC 2998 = system: HCC 2998
U-251 = system: U-251
MOLT-4 = system: MOLT-4
MDA-MB-435 = system: MDA-MB-435
OVCAR-8 = system: OVCAR-8
LOX IMVI = system: LOX IMVI
SN12C = system: SN12C
OVCAR-4 = system: OVCAR-4
A549 = system: A549
SF-539 = system: SF-539
T47D = system: T47D
ACHN = system: ACHN
IGROV-1 = system: IGROV-1
CAKI-1 = system: CAKI-1
HCT-116 = system: HCT-116
SK-MEL-2 = system: SK-MEL-2
NCI/ADR-RES = system: NCI/ADR-RES
786-0 = system: 786-0

| SMILES | GI50 (SW-620) | GI50 (EKVX) | GI50 (HCC 2998) | GI50 (U-251) | GI50 (MOLT-4) | GI50 (MDA-MB-435) | GI50 (OVCAR-8) | GI50 (LOX IMVI) | GI50 (SN12C) | GI50 (OVCAR-4) | GI50 (A549) | GI50 (SF-539) | GI50 (T47D) | GI50 (ACHN) | GI50 (IGROV-1) | GI50 (CAKI-1) | GI50 (HCT-116) | GI50 (SK-MEL-2) | GI50 (NCI/ADR-RES) | GI50 (786-0) |
| --- | --- | --- | --- | --- | --- | --- | --- | --- | --- | --- | --- | --- | --- | --- | --- | --- | --- | --- | --- | --- |
| COCCN(CCNC(=O)c1cccc2c(N)c3cccc(C)c3nc12)CCOC | 0.491 µM (active) | 1.31 µM (inactive) | 0.294 µM (active) | 3.47 µM (inactive) | 0.144 µM (active) | 1.83 µM (inactive) | 0.807 µM (active) | 1.04 µM (active) | 0.582 µM (active) | 0.589 µM (active) | 0.692 µM (active) | 0.931 µM (active) | 4.65 µM (inactive) | 0.681 µM (active) | 0.571 µM (active) | 0.528 µM (active) | 0.9 µM (active) | 5.36 µM (inactive) | 4.4 µM (inactive) | 0.562 µM (active) |
| CC1=NN(c2cccc(Cl)c2)C2(C1=C/C=C/c1ccccc1)C(Cl)C(=O)N2c1nc2ccccc2s1 (stereo not given) | 18.9 µM (inactive) | 40.2 µM (inactive) | 25.1 µM (inactive) | 6.92 µM (inactive) | 1.53 µM (inactive) | 24.6 µM (inactive) | 17.9 µM (inactive) | 13.1 µM (inactive) | 34.6 µM (inactive) | 35.7 µM (inactive) | 43 µM (inactive) | 19.2 µM (inactive) | 15.8 µM (inactive) | 4.76 µM (inactive) | 27.5 µM (inactive) | 9.4 µM (inactive) | 19.3 µM (inactive) | 18.7 µM (inactive) | 40.5 µM (inactive) | 11.7 µM (inactive) |
| Cn1c(=O)c2c(nc3n(C)c(=O)c4ccccc4n23)n(C)c1=O | 42.2 µM (inactive) | > 100 µM (inactive) | > 100 µM (inactive) | 34 µM (inactive) | 3.18 µM (inactive) | > 100 µM (inactive) | 33 µM (inactive) | 38.7 µM (inactive) | 29.2 µM (inactive) | > 100 µM (inactive) | 9.98 µM (inactive) | 34.8 µM (inactive) | > 71 µM (inactive) | 17.1 µM (inactive) | > 95.9 µM (inactive) | 24.3 µM (inactive) | 71 µM (inactive) | > 100 µM (inactive) | 59.4 µM (inactive) | 29.6 µM (inactive) |
| CCOC(=O)NC1CN2CCC1CC2 (stereo not given) | > 100 µM (inactive) | > 100 µM (inactive) | > 100 µM (inactive) | > 100 µM (inactive) | > 100 µM (inactive) | > 100 µM (inactive) | > 100 µM (inactive) | > 100 µM (inactive) | > 100 µM (inactive) | > 100 µM (inactive) | > 100 µM (inactive) | > 100 µM (inactive) | > 100 µM (inactive) | > 100 µM (inactive) | > 100 µM (inactive) | > 100 µM (inactive) | > 100 µM (inactive) | > 100 µM (inactive) | > 100 µM (inactive) | > 100 µM (inactive) |
| CC/C=C\C=C/C(=O)N/C=C/CCC | > 100 µM (inactive) | > 100 µM (inactive) | 23.3 µM (inactive) | > 100 µM (inactive) | 22.8 µM (inactive) | > 100 µM (inactive) | > 100 µM (inactive) | > 100 µM (inactive) | > 100 µM (inactive) | > 100 µM (inactive) | > 100 µM (inactive) | > 100 µM (inactive) | 62.8 µM (inactive) | > 100 µM (inactive) | > 100 µM (inactive) | > 100 µM (inactive) | 38.9 µM (inactive) | > 100 µM (inactive) | > 100 µM (inactive) | > 100 µM (inactive) |

From ChEMBL document CHEMBL1201862, “PubChem BioAssay data set” (2004)
